Test results as given in patent US20110256121A1, “METHODS AND KITS FOR DIAGNOSING OR MONITORING AUTOIMMUNE AND CHRONIC INFLAMMATORY DISEASES” (THE REGENTS OF THE UNIVERSITY OF MICHIGAN, priority 2008, published 2011).

Columns and labels:
KIR2DL2 promoter = KIR2DL2 promoter reporter construct assay in T cells; assay type: cell-based, human
Protocol: (§1) Reporter construct assays. Amplified KIR promoter fragments were subcloned into the EcoRI site of the promoterless pmaxFP-Yellow-PRL vector (Amaxa GmbH). Plasmids were purified using QIAGEN EndoFree Plasmid Kits (QIAGEN), and 2 μg of DNA transfected into untreated or 5-azaC treated human T cells using the human T cell nucleofector kit (Amaxa GmbH) and the manufacturer's protocol. Controls included cotransfection with pmaxGFP (Amaxa GmbH) and transfection with the promoterless reporter vector. Fluorescence was measured by flow cytometry. Site directed mutagenesis. Mutations were introduced into the same pmaxFP-Yellow-PRL KIR2DL2 and KIR2DL4 promoter constructs using the QuickChange Multi Site-Directed Mutagenesis Kit (Stratagene, La Jolla, Calif.). The changes include a […]→[…] mutation at −78→−71 in the Sp1 site, a CCC→ACA mutation at −61→−59 in the Ets1 site, or both, in the KIR2DL2 promoter, and a TTT→GGG mutation at −73→−71 in the Ets1 site, a CCC→ACA mutation at −61→−59 in the Ets1 site, or both, in the KIR2DL4 promoter. A separate G→A mutation in the AML site was also introduced into both promoters at −98 (16; 17). The constructs were transfected in to PHA stimulated, 5-azaC treated T cells as above. Controls included transfection with pmaxGFP.
(§2) Effects of 5-azaC on KIR transcriptional activator-DNA interactions. […]

KIR2DL4 promoter = KIR2DL4 promoter reporter construct assay in T cells; assay type: cell-based, human
Protocol: as §1, §2

[1] = 5-azaC treated vs untreated T cells, FIG. 29b, p<0.005
[2] = relative to untreated T cells, FIG. 29c

## Nc1ncn([C@@H]2O[C@H](CO)[C@@H](O)[C@H]2O)c(=O)n1 [5-azaC, 5-azacytidine]
KIR2DL2 promoter; [1]
  increase of KIR2DL2 promoter function: 3-4 fold
KIR2DL2 promoter; [2]
  increase of expression of the unmodified KIR2DL2 construct: ~2 fold
KIR2DL4 promoter; [1]
  increase of KIR2DL4 promoter function: 3-4 fold
KIR2DL4 promoter; [2]
  increase of expression of the unmodified KIR2DL4 construct: ~3 fold
